Results taken from US11725036B2, “Modified lipidated relaxin B chain peptides and their therapeutic use” (Sanofi, priority 2018, dated 2023).
Starred links: 1 amine or outer side, 2 acyl side, 3 side chain; linkers in the order of their positions; H or OH if unused. Non-standard residues stand in square brackets, D forms with d. Residues, ends and D or L forms follow the SMILES beside them. Groups on a side chain read outwards from the residue. *: point of attachment. X1 = CCCCCCCCCCCCCCCC(=O)N[C@@H](CCC(=O)N[C@@H](CCC(=O)N[C@@H](CCC(=O)NCCCOCCOCCOCCCNC(=O)CCC(=O)NCCCOCCOCCOCCCNC(=O)CCC(=O)NCCCOCCOCCOCCCN*)C(=O)O)C(=O)O)C(=O)O; Suc = O=C(CCC(=O)[*:2])[*:1]; αMeK = C[C@](N)(CCCCN)C(=O)O; Aib = CC(C)(N)C(=O)O

Target: T1, RXFP1 (Homo sapiens, UniProt Q9HBX9)
T1 construct: OVCAR5 cells expressing endogenous RXFP1; endogenous in cells; host or cells: OVCAR5
T1 sequence (Q9HBX9 1-757): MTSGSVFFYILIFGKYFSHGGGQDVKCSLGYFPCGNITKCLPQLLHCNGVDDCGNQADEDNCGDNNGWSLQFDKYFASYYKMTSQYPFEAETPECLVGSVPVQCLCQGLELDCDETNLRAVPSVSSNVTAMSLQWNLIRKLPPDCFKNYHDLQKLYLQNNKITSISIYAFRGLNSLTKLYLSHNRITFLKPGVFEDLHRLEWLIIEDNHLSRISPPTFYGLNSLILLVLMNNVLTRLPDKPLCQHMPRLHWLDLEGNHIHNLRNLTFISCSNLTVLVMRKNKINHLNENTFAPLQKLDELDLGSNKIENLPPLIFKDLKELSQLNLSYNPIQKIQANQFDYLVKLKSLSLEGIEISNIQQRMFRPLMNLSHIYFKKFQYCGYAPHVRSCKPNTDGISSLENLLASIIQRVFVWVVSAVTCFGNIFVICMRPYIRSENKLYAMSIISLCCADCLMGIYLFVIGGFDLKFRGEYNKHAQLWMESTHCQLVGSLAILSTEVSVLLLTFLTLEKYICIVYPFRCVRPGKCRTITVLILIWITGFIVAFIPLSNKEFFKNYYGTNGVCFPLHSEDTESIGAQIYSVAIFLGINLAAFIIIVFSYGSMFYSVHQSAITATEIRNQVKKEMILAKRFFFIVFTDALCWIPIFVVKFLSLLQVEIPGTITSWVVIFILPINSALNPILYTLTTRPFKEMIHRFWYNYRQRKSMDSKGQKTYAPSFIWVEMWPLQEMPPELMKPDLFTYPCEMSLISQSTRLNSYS
Experiment: OVCAR5 cAMP assay (HTRF)
Assay type: cell-based
Conditions: for EC50: OVCAR 5 cells expressing endogenous RXFP1, cAMP readout; for Emax: OVCAR 5 cells, maximal cAMP relative to H2-relaxin
Procedure, shortened: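 Endogenous RXFP1 in OVCAR5 cells, pretreated 40 min at 37° C with 1 mM IBMX, then exposed to increasing peptide concentrations in serum-free medium for 30 min at 37° C. cAMP read by HTRF; EC50 by variable-slope sigmoidal fit, Emax as % of H2-relaxin maximal cAMP in same run.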

In the case of CCCCCCCCCCCCCCCC(=O)N[C@@H](CCC(=O)N[C@@H](CCC(=O)N[C@@H](CCC(=O)NCCCOCCOCCOCCCNC(=O)CCC(=O)NCCCOCCOCCOCCCNC(=O)CCC(=O)NCCCOCCOCCOCCCNC(=O)CCC(=O)NCCCC[C@H](NC(=O)CNC(=O)[C@H](CCC(=O)O)NC(=O)C(C)(C)NC(=O)[C@H](C)NC(=O)[C@@H](NC(=O)[C@H](CCCCNC(C)=O)NC(=O)[C@H](C)NC(=O)[C@H](CCCNC(=N)N)NC(=O)[C@@H](NC(=O)[C@H](CCCCN)NC(=O)[C@H](CCC(=O)O)NC(=O)[C@H](CCCNC(=N)N)NC(=O)CNC(=O)[C@H](CCC(=O)O)NC(=O)[C@H](CC(C)C)NC(C)=O)C(C)C)[C@@H](C)CC)C(=O)N[C@@H](CO)C(=O)N[C@H](C(=O)N[C@@H](Cc1ccccc1)C(=O)N[C@@H](CO)C(=O)N[C@@](C)(CCCCN)C(=O)N[C@@H](CCCNC(=N)N)C(=O)N[C@@H](C)C(=O)N[C@@H](CCCCNC(C)=O)C(N)=O)[C@@H](C)O)C(=O)O)C(=O)O)C(=O)O [compound 90] (Ac-LEGREKVRAK(Ac)IA[Aib]EGK([Suc-X1])STFS[αMeK]RAK(Ac)-NH2), the EC50 is reported as 0.14 nM and the Emax is reported as 97%.
With CCCCCCCCCCCCCCCC(=O)N[C@@H](CCC(=O)N[C@@H](CCC(=O)N[C@@H](CCC(=O)NCCCOCCOCCOCCCNC(=O)CCC(=O)NCCCOCCOCCOCCCNC(=O)CCC(=O)NCCCOCCOCCOCCCNC(=O)CCC(=O)NCCCC[C@H](NC(=O)CNC(=O)[C@H](CCC(=O)O)NC(=O)C(C)(C)NC(=O)C(C)(C)NC(=O)[C@@H](NC(=O)[C@H](CCCCN)NC(=O)[C@H](C)NC(=O)[C@H](CCCNC(=N)N)NC(=O)[C@@H](NC(=O)[C@H](CCCCN)NC(=O)[C@H](CCC(=O)O)NC(=O)[C@H](CCCNC(=N)N)NC(=O)CNC(=O)[C@H](CCC(=O)O)NC(=O)[C@H](CC(C)C)NC(C)=O)C(C)C)[C@@H](C)CC)C(=O)N[C@@H](CO)C(=O)N[C@H](C(=O)N[C@@H](Cc1ccccc1)C(=O)N[C@@H](CO)C(=O)N[C@@](C)(CCCCN)C(=O)N[C@@H](CCCNC(=N)N)C(=O)N[C@@H](C)C(=O)N[C@@H](CCCCNC(C)=O)C(N)=O)[C@@H](C)O)C(=O)O)C(=O)O)C(=O)O [compound 47] (Ac-LEGREKVRAKI[Aib][Aib]EGK([Suc-X1])STFS[αMeK]RAK(Ac)-NH2) the EC50 was 0.64 nM and the Emax was 95%.
Compound CCCCCCCCCCCCCCCC(=O)N[C@@H](CCC(=O)N[C@@H](CCC(=O)N[C@@H](CCC(=O)NCCCOCCOCCOCCCNC(=O)CCC(=O)NCCCOCCOCCOCCCNC(=O)CCC(=O)NCCCOCCOCCOCCCNC(=O)CCC(=O)NCCCC[C@H](NC(=O)CNC(=O)[C@H](CCC(=O)O)NC(=O)C(C)(C)NC(=O)C(C)(C)NC(=O)[C@@H](NC(=O)[C@H](CCCCNC(C)=O)NC(=O)[C@H](C)NC(=O)[C@H](CCCNC(=N)N)NC(=O)[C@@H](NC(=O)[C@H](CCCNC(=N)N)NC(=O)[C@H](CCC(=O)O)NC(=O)[C@H](CCCNC(=N)N)NC(=O)CNC(=O)[C@H](CCC(=O)O)NC(=O)[C@H](CC(C)C)NC(C)=O)C(C)C)[C@@H](C)CC)C(=O)N[C@@H](CO)C(=O)N[C@H](C(=O)N[C@@H](Cc1ccccc1)C(=O)N[C@@H](CO)C(=O)NC(C)(C)C(=O)N[C@@H](CCCNC(=N)N)C(=O)N[C@@H](CCCNC(=N)N)C(=O)N[C@@H](CCCCNC(C)=O)C(N)=O)[C@@H](C)O)C(=O)O)C(=O)O)C(=O)O [compound 76] (Ac-LEGRERVRAK(Ac)I[Aib][Aib]EGK([Suc-X1])STFS[Aib]RRK(Ac)-NH2) has an EC50 of 0.18 nM and an Emax of 96%.
Compound CCCCCCCCCCCCCCCC(=O)N[C@@H](CCC(=O)N[C@@H](CCC(=O)N[C@@H](CCC(=O)NCCCOCCOCCOCCCNC(=O)CCC(=O)NCCCOCCOCCOCCCNC(=O)CCC(=O)NCCCOCCOCCOCCCNC(=O)CCC(=O)NCCCC[C@H](NC(=O)CNC(=O)[C@H](CCC(=O)O)NC(=O)C(C)(C)NC(=O)C(C)(C)NC(=O)[C@@H](NC(=O)[C@H](CCCCNC(C)=O)NC(=O)C(C)(C)NC(=O)[C@H](CCCNC(=N)N)NC(=O)[C@@H](NC(=O)[C@H](CCCCN)NC(=O)[C@H](CCC(=O)O)NC(=O)[C@H](CCCNC(=N)N)NC(=O)CNC(=O)[C@H](CCC(=O)O)NC(=O)[C@H](CC(C)C)NC(C)=O)C(C)C)[C@@H](C)CC)C(=O)N[C@@H](CO)C(=O)N[C@H](C(=O)N[C@@H](Cc1ccccc1)C(=O)N[C@@H](CO)C(=O)N[C@@](C)(CCCCN)C(=O)N[C@@H](CCCNC(=N)N)C(=O)N[C@@H](C)C(=O)N[C@@H](CCCCNC(C)=O)C(N)=O)[C@@H](C)O)C(=O)O)C(=O)O)C(=O)O [compound 29] (Ac-LEGREKVR[Aib]K(Ac)I[Aib][Aib]EGK([Suc-X1])STFS[αMeK]RAK(Ac)-NH2) has an EC50 of 1.6 nM and an Emax of 88%.
In the case of CCCCCCCCCCCCCCCC(=O)N[C@@H](CCC(=O)N[C@@H](CCC(=O)N[C@@H](CCC(=O)NCCCOCCOCCOCCCNC(=O)CCC(=O)NCCCOCCOCCOCCCNC(=O)CCC(=O)NCCCOCCOCCOCCCNC(=O)CCC(=O)NCCCC[C@H](NC(=O)CNC(=O)[C@H](CCC(=O)O)NC(=O)C(C)(C)NC(=O)C(C)(C)NC(=O)[C@@H](NC(=O)[C@H](CCCCNC(C)=O)NC(=O)[C@H](C)NC(=O)[C@H](CCCNC(=N)N)NC(=O)[C@@H](NC(=O)[C@H](CCCCN)NC(=O)[C@H](CCC(=O)O)NC(=O)[C@H](CCCNC(=N)N)NC(=O)CNC(=O)[C@H](CCC(=O)O)NC(=O)[C@H](CC(C)C)NC(C)=O)C(C)C)[C@@H](C)CC)C(=O)N[C@@H](CO)C(=O)N[C@@H](CCCCN)C(=O)N[C@@H](Cc1c[nH]c2ccccc12)C(=O)N[C@@H](CO)C(=O)NC(C)(C)C(=O)N[C@@H](CCCNC(=N)N)C(=O)N[C@@H](C)C(=O)N[C@@H](CCCCN)C(N)=O)C(=O)O)C(=O)O)C(=O)O [compound 73] (Ac-LEGREKVRAK(Ac)I[Aib][Aib]EGK([Suc-X1])SKWS[Aib]RAK-NH2), the EC50 is reported as 0.2 nM and the Emax is reported as 95%.
Compound CCCCCCCCCCCCCCCC(=O)N[C@@H](CCC(=O)N[C@@H](CCC(=O)N[C@@H](CCC(=O)NCCCOCCOCCOCCCNC(=O)CCC(=O)NCCCOCCOCCOCCCNC(=O)CCC(=O)NCCCOCCOCCOCCCNC(=O)CCC(=O)NCCCC[C@H](NC(=O)CNC(=O)[C@H](CCC(=O)O)NC(=O)C(C)(C)NC(=O)C(C)(C)NC(=O)[C@@H](NC(=O)[C@H](CCCCNC(C)=O)NC(=O)[C@H](C)NC(=O)[C@H](CCCNC(=N)N)NC(=O)[C@@H](NC(=O)[C@H](CCCCN)NC(=O)[C@H](CCC(=O)O)NC(=O)[C@H](CCCNC(=N)N)NC(=O)CNC(=O)[C@H](CCC(=O)O)NC(=O)[C@H](CC(C)C)NC(C)=O)C(C)C)[C@@H](C)CC)C(=O)N[C@@H](CO)C(=O)N[C@@H](CCCCN)C(=O)N[C@@H](Cc1ccccc1)C(=O)N[C@@H](CO)C(=O)NC(C)(C)C(=O)N[C@@H](CCCNC(=N)N)C(=O)N[C@@H](CCCCN)C(=O)N[C@@H](CCCCNC(C)=O)C(N)=O)C(=O)O)C(=O)O)C(=O)O [compound 79] (Ac-LEGREKVRAK(Ac)I[Aib][Aib]EGK([Suc-X1])SKFS[Aib]RKK(Ac)-NH2) has an EC50 of 0.45 nM and an Emax of 95%.
Compound CCCCCCCCCCCCCCCC(=O)N[C@@H](CCC(=O)N[C@@H](CCC(=O)N[C@@H](CCC(=O)NCCCOCCOCCOCCCNC(=O)CCC(=O)NCCCOCCOCCOCCCNC(=O)CCC(=O)NCCCOCCOCCOCCCNC(=O)CCC(=O)NCCCC[C@H](NC(=O)CNC(=O)[C@H](CCC(=O)O)NC(=O)C(C)(C)NC(=O)C(C)(C)NC(=O)[C@@H](NC(=O)[C@H](CCCCNC(C)=O)NC(=O)[C@H](C)NC(=O)[C@H](CCCNC(=N)N)NC(=O)[C@@H](NC(=O)[C@H](CCCCN)NC(=O)[C@H](CCC(=O)O)NC(=O)[C@H](CCCNC(=N)N)NC(=O)CNC(=O)[C@H](CCC(=O)O)NC(=O)[C@H](CC(C)C)NC(C)=O)C(C)C)[C@@H](C)CC)C(=O)N[C@@H](CO)C(=O)N[C@H](C(=O)N[C@@H](Cc1ccccc1)C(=O)N[C@H](CO)C(=O)N[C@@H](CCCCN)C(=O)N[C@@H](CCCNC(=N)N)C(=O)N[C@@H](C)C(=O)N[C@@H](CCCCNC(C)=O)C(N)=O)[C@@H](C)O)C(=O)O)C(=O)O)C(=O)O [compound 14] (Ac-LEGREKVRAK(Ac)I[Aib][Aib]EGK([Suc-X1])STF[dS]KRAK(Ac)-NH2) has an EC50 of 3.2 nM and an Emax of 90%.
CCCCCCCCCCCCCCCC(=O)N[C@@H](CCC(=O)N[C@@H](CCC(=O)N[C@@H](CCC(=O)NCCCOCCOCCOCCCNC(=O)CCC(=O)NCCCOCCOCCOCCCNC(=O)CCC(=O)NCCCOCCOCCOCCCNC(=O)CCC(=O)NCCCC[C@H](NC(=O)CNC(=O)[C@H](CCC(=O)O)NC(=O)C(C)(C)NC(=O)C(C)(C)NC(=O)[C@@H](NC(=O)[C@H](CCCCNC(C)=O)NC(=O)C(C)(C)NC(=O)[C@H](CCCNC(=N)N)NC(=O)[C@@H](NC(=O)[C@H](CCCCN)NC(=O)[C@H](CCC(=O)O)NC(=O)[C@H](CCCNC(=N)N)NC(=O)CNC(=O)[C@H](CCC(=O)O)NC(=O)[C@H](CC(C)C)NC(C)=O)C(C)C)[C@@H](C)CC)C(=O)N[C@@H](CO)C(=O)N[C@H](C(=O)N[C@@H](Cc1c[nH]c2ccccc12)C(=O)N[C@@H](CO)C(=O)NC(C)(C)C(=O)N[C@@H](CCCNC(=N)N)C(=O)N[C@@H](CCCCN)C(=O)N[C@@H](CCCCNC(C)=O)C(N)=O)[C@@H](C)O)C(=O)O)C(=O)O)C(=O)O [compound 82] (Ac-LEGREKVR[Aib]K(Ac)I[Aib][Aib]EGK([Suc-X1])STWS[Aib]RKK(Ac)-NH2) gave an Emax of 95%.
